For test [1], the target named is T1, Lysine-specific demethylase 5B (Homo sapiens, UniProt Q9UGL1). Description: Inhibition of KDM5B (unknown origin).
The subject of another test is MDA-MB-231. Put plainly: Antiproliferative activity against human MDA-MB-231 cells assessed as growth inhibition. The format is functional.
For another test, the system named is MCF7. Description: Antiproliferative activity against human MCF7 cells assessed as growth inhibition. Type of test: functional.
The nature of test [2]: Selectivity ratio of GI50 for human […] cells. The format is functional.
Test [3] addresses T1, Lysine-specific demethylase 5B. Put plainly: Inhibition of KDM5B (1 to 755 residues) (unknown origin).
Test [4] concerns the target Lysine-specific demethylase 5C (Homo sapiens, UniProt P41229). Description: Inhibition of KDM5C (1 to 789 residues) (unknown origin).

pIC50: −log10 of the molar value.

A word on the pIC50: it is the negative decadic logarithm of the IC50, by convention in mol/L. Higher therefore signals a small IC50. As usually defined, the GI50 is the concentration giving 50% growth inhibition.

T1 sequence (Q9UGL1 whole entry): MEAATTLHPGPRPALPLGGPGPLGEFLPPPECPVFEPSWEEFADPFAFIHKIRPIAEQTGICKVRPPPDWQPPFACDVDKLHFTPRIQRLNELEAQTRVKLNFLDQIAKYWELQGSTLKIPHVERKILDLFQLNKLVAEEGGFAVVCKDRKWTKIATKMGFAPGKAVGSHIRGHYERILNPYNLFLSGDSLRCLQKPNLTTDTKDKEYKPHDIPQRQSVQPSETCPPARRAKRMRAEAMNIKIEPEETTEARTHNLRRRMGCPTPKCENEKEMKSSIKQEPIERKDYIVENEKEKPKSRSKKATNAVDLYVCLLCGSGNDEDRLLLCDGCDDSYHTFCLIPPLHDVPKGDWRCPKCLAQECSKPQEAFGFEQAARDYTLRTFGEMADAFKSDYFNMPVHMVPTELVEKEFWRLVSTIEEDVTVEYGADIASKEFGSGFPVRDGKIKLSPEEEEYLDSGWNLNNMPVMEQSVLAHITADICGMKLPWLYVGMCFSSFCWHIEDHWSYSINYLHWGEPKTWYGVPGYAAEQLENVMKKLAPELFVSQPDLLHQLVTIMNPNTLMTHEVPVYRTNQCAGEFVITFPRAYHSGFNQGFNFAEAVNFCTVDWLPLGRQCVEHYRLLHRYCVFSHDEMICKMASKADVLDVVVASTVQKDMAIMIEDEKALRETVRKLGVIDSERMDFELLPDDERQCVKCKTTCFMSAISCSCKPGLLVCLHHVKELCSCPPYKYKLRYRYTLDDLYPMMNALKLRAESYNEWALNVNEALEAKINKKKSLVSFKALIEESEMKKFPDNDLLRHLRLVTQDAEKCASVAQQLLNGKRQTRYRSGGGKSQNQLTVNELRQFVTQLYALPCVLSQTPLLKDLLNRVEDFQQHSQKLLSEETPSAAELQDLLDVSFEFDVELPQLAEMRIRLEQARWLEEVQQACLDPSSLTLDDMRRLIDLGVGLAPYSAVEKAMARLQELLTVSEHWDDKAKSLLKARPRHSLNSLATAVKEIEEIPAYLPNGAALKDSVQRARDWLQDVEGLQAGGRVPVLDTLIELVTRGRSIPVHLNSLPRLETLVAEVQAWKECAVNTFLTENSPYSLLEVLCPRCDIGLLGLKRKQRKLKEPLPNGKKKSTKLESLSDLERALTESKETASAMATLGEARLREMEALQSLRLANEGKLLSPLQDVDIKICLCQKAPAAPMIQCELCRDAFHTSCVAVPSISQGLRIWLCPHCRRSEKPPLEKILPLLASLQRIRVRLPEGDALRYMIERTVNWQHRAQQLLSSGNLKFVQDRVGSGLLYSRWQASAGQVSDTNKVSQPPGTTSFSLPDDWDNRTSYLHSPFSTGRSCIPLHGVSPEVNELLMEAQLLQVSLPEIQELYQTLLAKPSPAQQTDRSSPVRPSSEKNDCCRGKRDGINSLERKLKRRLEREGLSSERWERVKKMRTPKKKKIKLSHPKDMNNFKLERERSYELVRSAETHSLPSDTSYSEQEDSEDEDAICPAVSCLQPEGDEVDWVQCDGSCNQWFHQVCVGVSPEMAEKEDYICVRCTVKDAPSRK
Lysine-specific demethylase 5C, sequence (P41229 whole entry, the tested form may be a part): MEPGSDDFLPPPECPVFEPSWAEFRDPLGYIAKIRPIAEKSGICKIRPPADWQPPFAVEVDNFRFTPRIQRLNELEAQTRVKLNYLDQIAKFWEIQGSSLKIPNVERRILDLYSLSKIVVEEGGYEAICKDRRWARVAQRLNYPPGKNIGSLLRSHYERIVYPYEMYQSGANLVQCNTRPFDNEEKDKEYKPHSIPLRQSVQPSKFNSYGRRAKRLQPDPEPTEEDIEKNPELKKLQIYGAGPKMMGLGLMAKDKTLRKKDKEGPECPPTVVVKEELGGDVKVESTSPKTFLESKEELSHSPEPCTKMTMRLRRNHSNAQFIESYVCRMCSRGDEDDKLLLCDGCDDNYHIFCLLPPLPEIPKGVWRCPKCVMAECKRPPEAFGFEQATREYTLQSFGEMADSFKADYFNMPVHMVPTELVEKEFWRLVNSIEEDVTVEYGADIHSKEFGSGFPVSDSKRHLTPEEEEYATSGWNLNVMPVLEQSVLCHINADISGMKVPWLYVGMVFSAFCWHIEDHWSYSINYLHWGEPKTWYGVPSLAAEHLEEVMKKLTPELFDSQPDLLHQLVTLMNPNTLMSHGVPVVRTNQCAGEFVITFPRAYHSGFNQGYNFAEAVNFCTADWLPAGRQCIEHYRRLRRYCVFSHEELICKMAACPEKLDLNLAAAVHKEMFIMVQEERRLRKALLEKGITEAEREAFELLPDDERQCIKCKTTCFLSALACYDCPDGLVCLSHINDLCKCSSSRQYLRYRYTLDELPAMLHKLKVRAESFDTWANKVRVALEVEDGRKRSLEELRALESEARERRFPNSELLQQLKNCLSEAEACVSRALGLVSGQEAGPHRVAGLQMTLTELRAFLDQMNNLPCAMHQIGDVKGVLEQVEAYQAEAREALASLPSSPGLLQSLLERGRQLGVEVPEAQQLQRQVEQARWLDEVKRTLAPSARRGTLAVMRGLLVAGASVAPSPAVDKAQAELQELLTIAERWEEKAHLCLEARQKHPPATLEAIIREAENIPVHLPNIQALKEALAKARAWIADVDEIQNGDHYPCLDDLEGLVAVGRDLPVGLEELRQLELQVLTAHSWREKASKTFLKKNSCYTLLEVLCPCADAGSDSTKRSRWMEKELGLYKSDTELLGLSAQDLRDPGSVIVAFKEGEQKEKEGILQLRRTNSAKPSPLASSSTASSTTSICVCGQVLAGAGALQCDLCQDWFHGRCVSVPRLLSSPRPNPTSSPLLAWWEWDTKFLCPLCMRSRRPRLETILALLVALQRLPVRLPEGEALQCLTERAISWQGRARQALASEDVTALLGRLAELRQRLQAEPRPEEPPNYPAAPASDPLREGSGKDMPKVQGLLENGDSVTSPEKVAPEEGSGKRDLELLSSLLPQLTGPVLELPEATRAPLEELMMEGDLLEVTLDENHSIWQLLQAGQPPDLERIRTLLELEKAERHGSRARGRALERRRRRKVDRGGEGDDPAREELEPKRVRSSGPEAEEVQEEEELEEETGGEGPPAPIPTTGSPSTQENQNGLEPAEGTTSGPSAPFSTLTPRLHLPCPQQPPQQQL

Turning to `CCOC(=O)c1c(O)c2ccncc2[nH]c1=O`, the pIC50 in test [1] was 7.70.
Still for that read-out and setting: the same measure for `O=C(O)CCC(=O)C(=O)O` [ALPHA-KETOGLUTARIC ACID]: 3.10.
Take `Clc1ccc(N/N=C(\c2ccccc2)c2ccccn2)nc1`: the GI50 was 300 nM in the test with MDA-MB-231 and 22 nM with MCF7. Besides, in test [2], the Selectivity ratio turned out to be 14. Further, the pIC50 is 5.30 in test [3] and 4.38 in test [4].
`Cc1ccc(-n2sc3ccccc3c2=O)cc1` gave a pIC50 in test [1] of 5.52.
Compound `CC(C)c1c(-c2ccccc2)[nH]c2c(C#N)cnn2c1=O` showed a pIC50 in test [1] of 8.00.
